PMC3149900 (Chemical biology & drug design, 2010)

Settings: PAMPA

CC(=O)CC(c1ccccc1)c1c(O)c2ccccc2oc1=O (stereo not shown) [Warfarin, warfarin]
Log (Pe): −4.95
